Data from paper PMC6318807 (ACS chemical neuroscience, 2018).

Each molecule was assayed against EP2 receptor (Homo sapiens, UniProt P43116) (assay: TR-FRET cAMP).
Assay type: cell-based

EP2 receptor, sequence (P43116 whole entry): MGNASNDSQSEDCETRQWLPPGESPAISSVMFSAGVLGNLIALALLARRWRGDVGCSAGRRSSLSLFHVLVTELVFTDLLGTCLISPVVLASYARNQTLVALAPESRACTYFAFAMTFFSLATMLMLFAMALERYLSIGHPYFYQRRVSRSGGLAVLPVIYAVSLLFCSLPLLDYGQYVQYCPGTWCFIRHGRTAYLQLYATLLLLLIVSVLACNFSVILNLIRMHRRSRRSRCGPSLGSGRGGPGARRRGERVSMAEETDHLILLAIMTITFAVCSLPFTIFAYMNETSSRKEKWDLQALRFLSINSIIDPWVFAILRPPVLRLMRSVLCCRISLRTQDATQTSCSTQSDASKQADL

TR-FRET cAMP; fold leftward shift of PGE2 EC50 at 20 μM compound | SMILES
4.3 fold shift of PGE2 EC50 at 20 μM | O=C(Nc1ccccc1N1CCCCC1)c1ccc(F)cc1 [CID890517, 4-fluoro-N-(2-piperidin-1-ylphenyl)benzamide]
2.7 fold shift of PGE2 EC50 at 20 μM | COc1ccc(-c2cc(C(F)(F)F)nc(N3CCOCC3)n2)cc1OC [CID2992168, 4-[4-(3,4-dimethoxyphenyl)-6 (trifluoromethyl)pyrimidin-2-yl]morpholine]
2.4 fold shift of PGE2 EC50 at 20 μM | CC(C)Sc1cc(N2CCOCC2)nc(-c2ccccc2)n1 [CID852313]
2.4 fold shift of PGE2 EC50 at 20 μM | CC(C)Sc1cc(N2CCOCC2)nc(-c2ccc(Cl)cc2)n1 [CID852308]
3.3 fold shift of PGE2 EC50 at 20 μM | Cc1ccccc1C(=O)Nc1ccccc1N1CCCCC1 [CID2340325, 2-methyl-N-(2-piperidin-1-ylphenyl)benzamide]
2.5 fold shift of PGE2 EC50 at 20 μM | O=C(Nc1cccc(Cl)c1N1CCCCC1)c1ccc2c(c1)OCCO2 [CID1254488]
2.5 fold shift of PGE2 EC50 at 20 μM | CC1CCN(c2ccccc2NC(=O)c2ccc(F)cc2)CC1 [CID953673, 4-fluoro-N-(2-(4-methylpiperidin-1-yl)phenyl)benzamide]

SMILES | TR-FRET cAMP; fold leftward shift of PGE2 EC50 at 20 μM compound
FC(F)(F)c1cc(-c2ccccc2)nc(N2CCOCC2)n1 [CID891729, 4-[4-phenyl-6-(trifluoromethyl)pyrimidin-2-yl]morpholine] | 2.4 fold shift of PGE2 EC50 at 20 μM
